# From patent US20110251188A1, “ACENAPHTHO HETEROCYCLE COMPOUNDS, CYCLODEXTRIN INCLUSION COMPOUNDS AND COMPLEXES, AND USES IN THE MANUFACTURES OF BH3 PROTEIN ANALOGUE, BCL-2 FAMILY PROTEIN INHIBITORS THEREOF” (DALIAN UNIVERSITY OF TECHNOLOGY, priority 2008, published 2011)
# How the values were obtained:
# GST-Bcl-2 protein = target: T1, GST-Bcl-2 protein (Homo sapiens, UniProt P10415); assay: fluorescence polarization assay, competitive binding against FAM-Bid peptide; conditions: Table 3; FAM-Bid competition; table does not say whether Bcl-2 or Mcl-1; read-out: Binding constant
# T1 construct: fused on or other part: GST tag on Bcl-2
# Experimental: A Bid BH3 peptide (amino acids: 79-99: […]) having 21 amino acids was synthesized and marked with 6-carboxyfluorescein N-succinimidyl ester (FAM) as fluorescent tag (FAM-Bid) at the N-terminal. The reaction system used in the competitive binding experiment was GST-Bcl-2 protein (40 nM) or Mcl-1 protein, which was dissolved in the reaction buffer (100 mM K3PO4, pH 7.5; 100 μg/ml bovine γ albumin; 0.02% sodium azide) together with FAM-Bid polypeptide (5 nM). In a 96-well plate, 100 μL of the reaction system was added into each well. Then 1 μL different concentration of 3-thiomorpholinyl-8-oxo-8H-acenaphtho[1,2-b]pyrrole-9-carbonitrile mother solution to be detected dissolved in DMSO was added thereinto until the final concentration met the experimental design requirements. Meanwhile, two control groups were established, one with the reaction system only contains Bcl-2 or Mcl-1 and FAM-Bid (equivalent to 0% inhibition rate), the other with the reaction system only containing FAM-Bid peptide. After 4 hours of incubation, the 96-well plate was detected by enzyme-labelled meter. The fluorescent polarization value (mP) was tested at […]. Ki value was deduced according to calculation formula. The competitive binding constant between the compound and Bcl-2 was 310 nM.
# [1] = target: T2, interaction between Bcl-2 and Bax (Homo sapiens, UniProt P10415); assay: intracellular fluorescence polarization energy transfer (FRET), Hela cells transfected with Bcl-2-CFP and Bax-YFP; type: cell-based; conditions: for Time for which the compound interfered with the interaction between Bcl-2 and Bax: goes with the concentration of E11; for Concentration at which the compound interfered with the interaction between Bcl-2 and Bax: goes with the time of E12
# T2 construct: expressed in transfected cells; host or cells: Hela cells
# Experimental: 24 hours later (please refer to FIG. 2), the cells were washed with PBS for three times. The fluorescence value was detected by GENIOS fluorescence enzyme-labelled meter (TECAN, Swiss). In time-dependent experiment, the transfected cells were inoculated in a 6-well plate, after that, 40 μM of the compound was added thereinto. 3, 6 and 24 hours later (FIG. 3), the fluorescence intensities were detected by plate reader. As for the cell group in which only Bcl-2-CFP plasmid was transfected, the values at 475 nm emission wave length and 433 nm excitation wave length were recorded. As for the cell group in which only Bax-YFP plasmid was transfected, the values at 527 nm emission wave length and 505 nm excitation wave length were recorded. […] The ratio of fluorescence intensity at 527 nm and 475 nm emission wave lengths was FRET. The FRET for the control group in which the plasmid was solely transfected was set as 1.0. […] The cellular vitality was detected by MTT method.
# Wherein the concentration and time meant that the detected compound interfered with the interaction between Bcl-2 and Bax at the concentration for the time period.
# Bax protein = assay: co-localization between Bax protein and chondriosome, Bax-YFP transfected MCF-7 cells; type: cell-based; conditions: for Time for which the compound drove the BAX to shift towards the chondriosome: goes with the concentration of E14; for Concentration at which the compound drove the BAX to shift towards the chondriosome: goes with the time of E15
# Experimental: 5 ng of Bax-YFP plasmid was transfected into MCF-7 cells by using calcium phosphate coprecipitation method, 24 hours later, the cells were inoculated in a 6-well plate (0.2×10^6 cells/well), and 10 μM of the compound 3-thiomorpholinyl-8-oxo-8 H-acenaphtho[1,2-b]pyrrole-9-carbonitrile to be detected was added thereinto. 6 hours later, the cells were washed with PBS and hatched away from light with 50 nM Mito Tracker Red CMXRos (chondriosome specific probes; red) for 10 minutes. Then the cells were washed with PBS for three times, and the fluorescent image was scanned with Radiance2000 laser confocal microscopy (Bio-Rad, USA). Meanwhile, dual channel scanning was carried out, one channel was used to scan the green fluorescence of Bax-YFP, and the other channel was used to scan the red fluorescence of the CMXRos probe for indicating the chondriosome. […] When the Bax protein was localized on the chondriosome, the green and red fluorescence was superimposed into orange, as shown in FIG. 4.
# Other 8 compounds were detected by the same experimental method as described above. […] Wherein the concentration and time meant that the detected compound simulated the BH3-only protein and driven the BAX to shift towards the chondriosome at the concentration for the time period.
# Mcl-1 [2] = assay: Western blotting, inhibition (downregulation) of Mcl-1 in tumor cells, Example 23; type: cell-based; conditions: for inhibition against Mcl-1: Western blotting, tumor cells
# Experimental: (§1) The interest protein was detected by the corresponding antibody. The expression of the interest protein in the cells was detected by horseradish peroxidase-labeled secondary antibodies in combination with ECL coloration method. […] The concentration of the protein bands in the Western images were carried out semiquantitative analysis and normalization treatment with KODAK Gel Logic 1500 imaging system software.
# Bcl-2 [3] = assay: Western blotting, inhibition (downregulation) of Bcl-2 in tumor cells, Example 23; type: cell-based; conditions: for inhibition against Bcl-2: Western blotting, tumor cells
# Experimental: as §1
# Bcl-2 [4] = assay: Western blotting, compounds compared with cyclodextrin inclusion compounds and complexes, Example 24; type: cell-based; conditions: Table 9; 10 μM or equivalent of inclusion compound, 24 hours
# Experimental: (§2) The cells were inoculated in a 6-well plate (2×10^5 cells/well). In the compound group, the compound 3-thiomorpholinyl-8-oxo-8H-acenaphtho[1,2-b]pyrrole-9-carbonitrile was dissolved into DMSO until the final concentration reached 10 μM. In the inclusion group, γ-cyclodextrin inclusion, which had been dissolved into water and was equivalent to 10 μM of the compound, was added thereinto. 24 hours later, the cells were washed with PBS for three times, then the cell sample was collected and cracked with 1×10^6/50 μl cell lysis solution (62.5 mM Tris-HCL pH 6.8; 2% SDS; 10% glycerol; 50 mM DTT; 0.01% bromphenol blue) at low temperature, then the solution was centrifuged and the protein supernatant was collected. The sample was boiled at 100° C. for 5 minutes and then was separated by electrophoresis on 12% SDS-PAGE and transferred. The interest protein was detected by the corresponding antibody. The expression of the interest protein in the cells was detected by horseradish peroxidase-labeled secondary antibodies in combination with ECL coloration method. […] The concentration of the protein bands in the Western figures were carried out semiquantitative analysis and normalization treatment with KODAK Gel Logic 1500 imaging system software.
# Mcl-1 [5] = assay: as above; type: cell-based; conditions: Table 8; 10 μM or equivalent of inclusion compound, 24 hours
# Experimental: as §2
# T2 sequence (P10415 whole entry): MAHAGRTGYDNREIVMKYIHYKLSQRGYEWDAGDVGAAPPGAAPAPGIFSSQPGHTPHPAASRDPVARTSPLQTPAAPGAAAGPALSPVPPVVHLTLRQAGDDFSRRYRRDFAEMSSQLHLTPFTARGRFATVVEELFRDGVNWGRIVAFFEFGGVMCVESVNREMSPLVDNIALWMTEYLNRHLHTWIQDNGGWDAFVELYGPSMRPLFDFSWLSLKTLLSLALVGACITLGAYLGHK
# T1 sequence (P10415 whole entry, the tested form may be a part): as the sequence (P10415 whole entry) above
SMILES,Ki (GST-Bcl-2 protein),Time for which the compound interfered with the interaction between Bcl-2 and Bax [1],Concentration at which the compound interfered with the interaction between Bcl-2 and Bax [1],Time for which the compound drove the BAX to shift towards the chondriosome (Bax protein),Concentration at which the compound drove the BAX to shift towards the chondriosome (Bax protein),"downregulation of Mcl-1 protein, semiquantitative analysis (band concentration, control = 1) (Mcl-1 [2]; 6 hours)","downregulation of Mcl-1 protein, semiquantitative analysis (band concentration, control = 1) (Mcl-1 [2]; 12 hours)","downregulation of Mcl-1 protein, semiquantitative analysis (band concentration, control = 1) (Mcl-1 [2]; 18 hours)","downregulation of Mcl-1 protein, semiquantitative analysis (band concentration, control = 1) (Mcl-1 [2]; 24 hours)",inhibition against Mcl-1 (Mcl-1 [2]),"downregulation of Bcl-2 protein, semiquantitative analysis (band concentration, control = 1) (Bcl-2 [3]; 2 hours)","downregulation of Bcl-2 protein, semiquantitative analysis (band concentration, control = 1) (Bcl-2 [3]; 6 hours)",inhibition against Bcl-2 (Bcl-2 [3]),"downregulation of Bcl-2 protein, semiquantitative analysis (band concentration, control = 1) (Bcl-2 [4])","downregulation of Mcl-1 protein, semiquantitative analysis (band concentration, control = 1) (Mcl-1 [5])"
"N#CC1=C2C(=NC1=O)c1c(Sc3ccc(Br)cc3)ccc3c(Sc4ccc(Br)cc4)ccc2c13 [3,6-di(4-bromophenylthio)-8-oxo-8H-acenaphtho[1,2-b]pyrrole-9-carbonitrile]",5 nM,2 h,1.0 µM,6 h,5.0 µM,0.99,0.99,0.70,0.57,had the inhibition against Bcl-2 and Mcl-1 proteins,0.68,0.49,had the inhibition against Bcl-2 and Mcl-1 proteins,0.69,0.69
"N#CC1=C2C(=NC1=O)c1c(Sc3ccc(N)cc3)ccc3c(Sc4ccc(N)cc4)ccc2c13 [3,6-di(4-aminophenylthio)-8-oxo-8 H-acenaphtho[1,2-b]pyrrole-9-carbonitrile]",7 nM,2 h,1.0 µM,6 h,5.0 µM,0.99,0.99,0.68,0.33,had the inhibition against Bcl-2 and Mcl-1 proteins,0.72,0.43,had the inhibition against Bcl-2 and Mcl-1 proteins,0.75,0.75
"N#CC1=C2C(=NC1=O)c1c(Sc3ccc(N)cc3)ccc3cccc2c13 [6-(4-aminophenylthio)-8-oxo-8H-acenaphtho[1,2-b]pyrrole-9-carbonitrile]",20 nM,2 h,0.2 µM,6 h,5.0 µM,0.99,0.99,0.55,0.27,had the inhibition against Bcl-2 and Mcl-1 proteins,0.79,0.49,had the inhibition against Bcl-2 and Mcl-1 proteins,0.74,0.70
"N#CC1=C2C(=NC1=O)c1cccc3c(Sc4ccc(Br)cc4)ccc2c13 [3-(4-bromophenylthio)-8-oxo-8H-acenaphtho[1,2-b]pyrrole-9-carbonitrile]",17 nM,2 h,0.5 µM,6 h,1.0 µM,0.99,0.99,0.64,0.31,had the inhibition against Bcl-2 and Mcl-1 proteins,0.66,0.35,had the inhibition against Bcl-2 and Mcl-1 proteins,0.67,0.69
"N#CC1=C2C(=NC1=O)c1cccc3cccc2c13 [8-oxo-8H-acenaphtho[1,2-b]pyrrole-9-carbonitrile]",0.3 nM,2 h,0.1 µM,3 h,1.0 µM,0.99,0.99,0.48,0.21,had the inhibition against Bcl-2 and Mcl-1 proteins,0.78,0.69,had the inhibition against Bcl-2 and Mcl-1 proteins,0.69,0.77
